In patent US20160251403A1, “PEPTIDE COMBINATIONS AND USES THEREOF IN TREATING DUST MITE ALLERGY” (ALK-ABELLO A/S, priority 2013, published 2016):
No end group written: not given here.

Legend:
DPA10103-DPB10401 = molecular target: T1, DPA10103-DPB10401 (Homo sapiens, UniProt P04440+P20036); assay: Competitive MHC class II binding assay, DPA10103-DPB10401
T1 sequence (P20036 29-260): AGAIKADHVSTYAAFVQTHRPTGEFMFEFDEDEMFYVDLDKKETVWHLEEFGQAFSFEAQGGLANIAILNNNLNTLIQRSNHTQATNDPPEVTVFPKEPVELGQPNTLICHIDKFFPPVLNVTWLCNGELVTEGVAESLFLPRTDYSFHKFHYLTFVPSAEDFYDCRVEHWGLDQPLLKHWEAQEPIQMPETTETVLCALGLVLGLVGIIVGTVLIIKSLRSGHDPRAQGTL
T1 sequence (P04440 30-258): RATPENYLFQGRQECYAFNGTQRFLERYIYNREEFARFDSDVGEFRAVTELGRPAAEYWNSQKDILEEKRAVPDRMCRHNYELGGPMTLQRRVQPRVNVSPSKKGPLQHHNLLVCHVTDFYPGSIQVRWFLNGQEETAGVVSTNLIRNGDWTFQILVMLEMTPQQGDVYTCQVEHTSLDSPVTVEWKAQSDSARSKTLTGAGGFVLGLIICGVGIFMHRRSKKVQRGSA
Description: (§1) The assay employed is a competitive MHC class II binding assay, wherein each peptide is analyzed for its ability to displace a known control binder from each of the human MHC class II allotypes shown in Table 8. Due to the nature of the competitive assay, the data for each peptide is determined as a ratio of its own IC50 to that of the control peptide.
(§2) Briefly, 0.1-1 nM of radiolabeled peptide was co-incubated at room temperature or 37° C. with purified MHC in the presence of a cocktail of protease inhibitors. Following a two- to four-day incubation, MHC bound radioactivity was determined by capturing MHC/peptide complexes on monoclonal Ab coated Lumitrac 600 plates (Greiner Bio-one, Frickenhausen, Germany), and measuring bound cpm using the TopCount (Packard Instrument Co., Meriden, Conn.) microscintillation counter. In the case of competitive assays, the concentration of peptide yielding 50% inhibition of the binding of the radiolabeled peptide was calculated. Under the conditions utilized, where [label]<[MHC] and IC50≧[MHC], the measured IC50 values are reasonable approximations of the true Kd values (Cheng and Prusoff 1973; Gulukota et al. 1997). Each peptide was tested at six different concentrations covering a 100,000-fold dose range in three or more independent experiments. […]

DRB1_1201 = DRB1_1201 (Homo sapiens, UniProt P01903+P01911, A100R/A169T/D57E/D86V/F55L/H45Y/K41T/L162R/M171V/P40S/Q125H/Q178H/Q39Y/Q99D/R42G/S66L/T262R/V114A/V67L/W38E/Y59H/Y61H/Y89S); assay: Competitive MHC class II binding assay, DRB1_1201
Description: as §1, §2

For DNGYGYFAANIDLMMIEE [pep-010], which IC50 (DPA10103-DPB10401) is on record?
The IC50 was < 1 µM.

CC[C@H](C)[C@H](NC(=O)CNC(=O)[C@@H](NC(=O)[C@@H](NC(=O)[C@@H](NC(=O)[C@H](C)NC(=O)[C@@H](NC(=O)[C@H](C)NC(=O)[C@H](CO)NC(=O)[C@H](Cc1c[nH]cn1)NC(=O)[C@@H](NC(=O)[C@H](CCC(N)=O)NC(=O)[C@H](C)NC(=O)[C@H](CC(C)C)NC(=O)[C@H](C)NC(=O)[C@H](CCC(=O)O)NC(=O)[C@@H](N)CCCNC(=N)N)[C@@H](C)O)[C@@H](C)CC)C(C)C)[C@@H](C)CC)[C@@H](C)CC)C(=O)N[C@@H](CCCCN)C(=O)N[C@@H](CC(=O)O)C(=O)N[C@@H](CC(C)C)C(=O)N[C@@H](CC(=O)O)C(=O)N[C@@H](C)C(=O)O [pep-130] was tested. Which IC50 (DRB1_1201) did it give?
Its IC50 is < 1 µM.
